Calls of active or inactive are those of the source. The rule behind the calls is not given here.
Tests used:
[1] = tested on: Radical scavenging activity; experiment: Antioxidant activity assessed as DPPH radical scavenging activity; type: functional
[2] = tested on: Radical scavenging activity; experiment: Antioxidant activity assessed as DPPH radical scavenging activity at 0.05 mM after 60 mins; type: functional
[3] = Antioxidant activity assessed as inhibition of AAPH-induced lipid peroxidation at 0.1 mM; type: functional
SW-620 = experiment: Cytostatic activity against human SW620 cells; type: functional, cell-based
[4] = tested on: Radical scavenging activity; experiment: Antioxidant activity assessed as DPPH radical scavenging activity at 0.1 mM after 60 mins; type: functional
[5] = tested on: Radical scavenging activity; experiment: Antioxidant activity assessed as DPPH radical scavenging activity at 0.05 mM after 20 mins; type: functional
[6] = tested on: Radical scavenging activity; experiment: Antioxidant activity assessed as DPPH radical scavenging activity at 0.1 mM after 20 mins; type: functional
HCT-116 = experiment: Cytostatic activity against human HCT116 cells; type: functional, cell-based
NCI-H460 = experiment: Cytostatic activity against human H460 cells; type: functional, cell-based
MCF7 [7] = experiment: Cytostatic activity against human MCF7 cells; type: functional, cell-based
MOLT-4 = experiment: Cytostatic activity against human MOLT4 cells; type: functional, cell-based
Glycine max = experiment: Inhibition of soybean lipoxygenase
MCF7 [8] = experiment: Antiproliferative activity against human MCF7 cells at 100 uM after 24 hrs; type: functional; conditions: MCF7, 24 h

Compound	Activity [1]	Activity [2]	Inhibition [3] [%]	IC50 (SW-620) [µM]	Activity [4] [%]	Activity [5]	Activity [6]	IC50 (HCT-116) [µM]	IC50 (NCI-H460) [µM]	IC50 (MCF7 [7]) [µM]	IC50 (MOLT-4) [µM]	INH (Glycine max) [µM]	inhibition (Glycine max)	IC50 [3]	inhibition at 100 µM (MCF7 [8]) [%]
COc1cc(NC(C)CCCNC(=O)NO)c2ncccc2c1 (stereo not given)	Dose-dependent effect	60.6%	69	35	84.5	2.2%	88.1%	57	> 100	44	> 100	83	–	–	–
CCOC(=O)NCCCC(C)Nc1cc(OC)cc2cccnc12 (stereo not given)	Dose-dependent effect	8.5%	87	45	31	10.8%	inactive	28	38	26	34	–	inactive	–	–
COc1cc(NC(C)CCCNC(=O)n2nnc3ccccc32)c2ncccc2c1 (stereo not given) [PRIMAQUINE BENZOTRIAZOLIDE]	Dose-dependent effect	20%	–	–	73.8	18.4%	16.7%	–	–	–	–	260	–	Not Active	–
Cc1c(C)c2c(c(C)c1O)CCC(C)(C(=O)O)O2 (stereo not given) [TROLOX]	–	–	63	–	–	–	–	–	–	–	–	–	–	–	–
COC(=O)NCCCC(C)Nc1cc(OC)cc2cccnc12 (stereo not given)	Dose-dependent effect	13.8%	83	> 100	48.8	24.4%	75%	> 100	> 100	> 100	> 100	–	inactive	–	–
COc1cc(NC(C)CCCNC(=O)NC2CCCC2)c2ncccc2c1 (stereo not given)	Dose-dependent effect	21.3%	99	–	19	15.8%	26.2%	–	–	–	–	220	–	–	–
O=C(O)/C=C/c1ccc(O)c(O)c1	–	–	–	–	–	–	–	–	–	–	–	600	–	–	–
CC(Cc1ccc(O)c(O)c1)C(C)Cc1ccc(O)c(O)c1 (stereo not given)	–	–	–	–	83	–	81%	–	–	–	–	–	–	–	–
COc1cc(NC(C)CCCNC(=O)NOCc2ccccc2)c2ncccc2c1 (stereo not given)	Dose-dependent effect	inactive	82	20	38.1	inactive	11.4%	14	21	9	12	230	–	–	–
COc1cc(NC(C)CCCNC(=O)NC2CCCCC2)c2ncccc2c1 (stereo not given)	Dose-dependent effect	16.3%	99	–	25	28.9%	27.4%	–	–	–	–	–	inactive	–	–
COc1cc(N2C(=O)NCCCC2C)c2ncccc2c1 (stereo not given)	Dose-dependent effect	40%	88	> 100	57.1	30.5%	48.8%	> 100	> 100	> 100	≥ 100	72	–	–	–
COc1cc(NC(C)CCCNC(=O)NC(CO)(CO)CO)c2ncccc2c1 (stereo not given)	Dose-dependent effect	22.3%	86	> 100	40.5	24.4%	28.6%	> 100	> 100	24	> 100	–	inactive	–	–
NC(=O)NO [HYDROXYUREA]	–	–	–	> 100	–	–	–	223	> 100	> 100	> 100	–	–	–	–
COc1cc(NC(C)CCCNC(=O)N(C2CCCCC2)C2CCCCC2)c2ncccc2c1 (stereo not given)	Dose-dependent effect	28.8%	96	–	42.9	3.9%	42.9%	–	–	–	–	320	–	–	–
COc1cc(NC(C)CCCNC(=O)NCCCO)c2ncccc2c1 (stereo not given)	Dose-dependent effect	27.7%	56	> 100	33.3	12.2%	28.6%	> 100	> 100	31	> 100	230	–	–	–
COc1cc(NC(C)CCCNC(=O)NCCCCCO)c2ncccc2c1 (stereo not given)	Dose-dependent effect	inactive	63	0.2	46.4	inactive	34.5%	29	2	44	61	310	–	–	–
COc1cc(NC(C)CCCNC(=O)NCCNC(=O)NCCCC(C)Nc2cc(OC)cc3cccnc23)c2ncccc2c1 (stereo not given)	Dose-dependent effect	27.6%	99	17	40.5	34.2%	35.7%	15	18	31	10	62	–	–	–
COc1cc(NC(C)CCCNC(=O)N(CCO)CCO)c2ncccc2c1 (stereo not given)	Dose-dependent effect	7.4%	85	> 100	11.9	20.7%	inactive	> 100	> 100	36	> 100	86	–	–	–
COc1cc(NC(C)CCCNC(=O)NCCO)c2ncccc2c1 (stereo not given)	Dose-dependent effect	10.6%	81	> 100	51.2	3.7%	60.7%	> 100	> 100	25	> 100	315	–	–	–
COc1cc(NC(C)CCCN)c2ncccc2c1 (stereo not given) [PRIMAQUINE]	–	19%	45	≥ 100	21.9	17.2%	18.1%	20	30	28	–	74	–	–	20

From ChEMBL document CHEMBL1153070, “Urea and carbamate derivatives of primaquine: synthesis, cytostatic and antioxidant activities” (Bioorg Med Chem, 2009)
